In patent US8207122B2, “Anti-cancer bioactive peptides isolated from crude venom of Xinjiang Lycosa singoriensis” (Xiamen Bioway Biotech Co., Limited, priority 2007, dated 2012):
Where a SMILES comes first, the peptide text is derived from it. Where no end group is shown, it is not given here.

Key:
[1] = Toxicity on a whole animal, subcutaneous injection; type: in vivo; settings: 200 mg/Kg body weight, mice, within 48 hours
Hela cells = experiment: Comparison of inhibitory activity of peptides on Hela cells; type: cell-based; settings: for activity compared with SEQ ID NO. 1: anti-cancer activity, in words
Method: The above-mentioned experiments have verified the peptide has strong inhibition on the growth of cancer cells and solid tumors. In order to study the inhibition degree of difference sequences (SEQ. Nos. 1-5) of the peptide on tumor cells, comparative experiments of measuring the activity of Hela cells were conducted (as shown in FIG. 7).
Nos. 1-4, at a concentration of 40 μmol/L, the inhibition rate on Hela cells was about 90%, at 20 μmol/L, about 50%, at 5 μmol/L, only 2%. Thus, the inhibition degree of SEQ. Nos. 1-4 on Hela cells was basically equal. However, for SEQ. No. 5, at a concentration of 40 μmol/L, 20 μmol/L, and 5 μmol/L, the inhibition rate on Hela cells was more than 80%. Compared with that of SEQ. Nos. 1-4, the inhibition degree of SEQ. No. 5 had been increased by about 10 times. No. 1 and SEQ. No. 5 could dissolve 19% and 37% red cells respectively, which meant the hemolytic activity of SEQ. No. 5 was […] than that of SEQ. No. 1.

CC[C@H](C)[C@H](NC(=O)[C@H](Cc1ccccc1)NC(=O)[C@H](CCCCN)NC(=O)[C@H](C)NC(=O)[C@@H](NC(=O)[C@H](CO)NC(=O)[C@H](CCCCN)NC(=O)[C@H](CCSC)NC(=O)[C@H](C)NC(=O)[C@H](CCCCN)NC(=O)[C@H](Cc1ccccc1)NC(=O)[C@H](Cc1c[nH]c2ccccc12)NC(=O)CNC(=O)[C@H](CCCCN)NC(=O)[C@@H](N)CCCNC(=N)N)[C@@H](C)CC)C(=O)N[C@@H](C)C(=O)N[C@@H](CCCCN)C(=O)N[C@@H](CCC(=O)O)C(=O)N[C@@H](CCCCN)C(=O)N[C@@H](CC(C)C)C(=O)N[C@@H](CCCCN)C(=O)N[C@@H](CCC(=O)O)C(=O)N[C@@H](Cc1c[nH]cn1)C(=O)N[C@@H](CC(C)C)C(N)=O [SEQ. No. 1] (H-RKGWFKAMKSIAKFIAKEKLKEHL-NH2)
toxic reaction [1]: no obvious toxic reaction was observed

CC[C@H](C)[C@H](NC(=O)[C@H](Cc1ccccc1)NC(=O)[C@H](CCCCN)NC(=O)[C@H](C)NC(=O)[C@@H](NC(=O)[C@H](CO)NC(=O)[C@H](CCCCN)NC(=O)[C@H](CCSC)NC(=O)[C@H](C)NC(=O)[C@@H](N)CCCCN)[C@@H](C)CC)C(=O)N[C@@H](C)C(=O)N[C@@H](CCCCN)C(N)=O [SEQ. No. 5, Lys Ala Met Lys Ser Ile Ala Lys Phe Ile Ala Lys-NH2] (H-KAMKSIAKFIAK-NH2)
inhibition rate on Hela cells (Hela cells; 5 μmol/L): more than 80%
inhibition rate on Hela cells (Hela cells; 20 μmol/L): more than 80%
inhibition rate on Hela cells (Hela cells; 40 μmol/L): more than 80%

Lys Gly Trp Phe Lys Ala Met Lys Ser Ile Ala Lys Phe Ile Ala Lys Glu Lys Leu Lys Glu His Leu-NH2 (KGWFKAMKSIAKFIAKEKLKEHL-NH2) [SEQ ID NO. 3]
activity compared with SEQ ID NO. 1 (Hela cells): same activity

Lys Gly Trp Phe Lys Ala Met Lys Ser Ile Ala Lys Phe Ile Ala Lys Glu Lys Met Lys Glu His Leu-NH2 (KGWFKAMKSIAKFIAKEKMKEHL-NH2; listed as Lycosa singoriensis) [SEQ ID NO. 2]
activity compared with SEQ ID NO. 1 (Hela cells): same activity

WFKAMKSIAKFIAKEKLK [SEQ ID NO. 4]
activity compared with SEQ ID NO. 1 (Hela cells): same activity
